Source: ChEMBL document CHEMBL5465560, “Selectivity Literature for EUbOPEN Chemogenomic Library” (2024)

How the values were obtained:
[1] = molecular target: Mitogen-activated protein kinase 3 (Homo sapiens, UniProt P27361); experiment: Selectivity interaction (KinomeScan (DiscoverX)) EUB0000695a MAPK3; conditions: at 100 nM
[2] = molecular target: Calcium/calmodulin-dependent protein kinase type II subunit beta (Homo sapiens) (UniProt Q13554); experiment: Selectivity interaction (SelectScreen profiling (Invitrogen)) EUB0000607a CAMK2B; conditions: at 2 µM
[3] = molecular target: Serine/threonine-protein kinase SBK1 (Homo sapiens) (UniProt Q52WX2); experiment: Selectivity interaction (KinomeScan (DiscoverX)) EUB0000607a SBK1; conditions: at 10 µM
[4] = molecular target: Receptor-interacting serine/threonine-protein kinase 2 (Homo sapiens, UniProt O43353); experiment: Selectivity interaction (KinomeScan (DiscoverX)) EUB0000618a RIPK2; conditions: at 10 µM
[5] = molecular target: T1, Serine/threonine-protein kinase tousled-like 1 (Homo sapiens) (UniProt Q9UKI8); experiment: Selectivity interaction (ActivX KiNativ screen (kinase selectivity in THP-1 cell lysates)) EUB0000639a TLK1; type: subcellular; conditions: lysate, at 0.2 µM
T1 sequence (whole entry): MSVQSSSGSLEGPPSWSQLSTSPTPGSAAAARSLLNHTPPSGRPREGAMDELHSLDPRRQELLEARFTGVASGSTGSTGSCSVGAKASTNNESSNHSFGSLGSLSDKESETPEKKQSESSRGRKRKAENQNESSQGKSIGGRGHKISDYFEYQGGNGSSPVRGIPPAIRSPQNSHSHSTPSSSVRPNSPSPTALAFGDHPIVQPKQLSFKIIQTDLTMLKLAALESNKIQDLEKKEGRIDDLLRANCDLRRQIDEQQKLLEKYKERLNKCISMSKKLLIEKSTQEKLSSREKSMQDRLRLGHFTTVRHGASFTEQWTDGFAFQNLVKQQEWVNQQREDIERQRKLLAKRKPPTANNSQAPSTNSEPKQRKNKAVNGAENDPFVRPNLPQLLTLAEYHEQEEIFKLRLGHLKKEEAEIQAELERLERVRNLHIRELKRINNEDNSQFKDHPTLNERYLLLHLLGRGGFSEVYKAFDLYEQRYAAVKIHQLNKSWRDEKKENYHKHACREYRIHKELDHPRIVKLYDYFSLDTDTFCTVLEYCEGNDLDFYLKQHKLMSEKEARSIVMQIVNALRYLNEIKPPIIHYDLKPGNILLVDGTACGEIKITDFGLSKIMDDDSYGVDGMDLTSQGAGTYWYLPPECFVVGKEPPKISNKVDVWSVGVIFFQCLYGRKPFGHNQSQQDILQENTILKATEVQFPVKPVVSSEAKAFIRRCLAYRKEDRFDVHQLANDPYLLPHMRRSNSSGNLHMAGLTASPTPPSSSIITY

[6] = molecular target: T2, Receptor-interacting serine/threonine-protein kinase 1 (Homo sapiens) (UniProt Q13546); conditions: at 10 µM
T2 sequence (whole entry): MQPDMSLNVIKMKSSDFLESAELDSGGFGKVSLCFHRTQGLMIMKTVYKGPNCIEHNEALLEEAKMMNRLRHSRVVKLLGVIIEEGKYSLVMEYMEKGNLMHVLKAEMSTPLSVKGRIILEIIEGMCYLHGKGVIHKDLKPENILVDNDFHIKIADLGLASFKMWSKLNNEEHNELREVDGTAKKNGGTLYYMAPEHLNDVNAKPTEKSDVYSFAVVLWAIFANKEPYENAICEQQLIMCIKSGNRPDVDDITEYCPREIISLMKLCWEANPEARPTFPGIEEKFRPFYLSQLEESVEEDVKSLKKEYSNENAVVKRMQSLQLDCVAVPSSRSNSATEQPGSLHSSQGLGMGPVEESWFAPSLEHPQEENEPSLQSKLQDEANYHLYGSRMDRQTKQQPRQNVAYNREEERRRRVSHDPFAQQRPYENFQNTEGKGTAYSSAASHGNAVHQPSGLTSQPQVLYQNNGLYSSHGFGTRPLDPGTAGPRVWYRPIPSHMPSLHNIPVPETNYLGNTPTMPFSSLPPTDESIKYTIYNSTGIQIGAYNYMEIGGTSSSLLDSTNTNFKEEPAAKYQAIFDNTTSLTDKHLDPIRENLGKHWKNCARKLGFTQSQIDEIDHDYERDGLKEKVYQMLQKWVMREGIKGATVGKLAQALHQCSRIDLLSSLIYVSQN

[7] = molecular target: Cyclin-dependent kinase 18 (Homo sapiens) (UniProt Q07002); experiment: Selectivity interaction (KinomeScan (DiscoverX)) EUB0000092b CDK18; conditions: at 10 µM
[8] = molecular target: Serine/threonine-protein kinase 10 (Homo sapiens) (UniProt O94804); experiment: Selectivity interaction (Ambit KINOMEscan and KiNATiv profiling in Jurkat cells) EUB0000090b STK10; type: cell-based; conditions: at 1 µM
Sequence of Serine/threonine-protein kinase 10 (Homo sapiens) (O94804 whole entry, looked up): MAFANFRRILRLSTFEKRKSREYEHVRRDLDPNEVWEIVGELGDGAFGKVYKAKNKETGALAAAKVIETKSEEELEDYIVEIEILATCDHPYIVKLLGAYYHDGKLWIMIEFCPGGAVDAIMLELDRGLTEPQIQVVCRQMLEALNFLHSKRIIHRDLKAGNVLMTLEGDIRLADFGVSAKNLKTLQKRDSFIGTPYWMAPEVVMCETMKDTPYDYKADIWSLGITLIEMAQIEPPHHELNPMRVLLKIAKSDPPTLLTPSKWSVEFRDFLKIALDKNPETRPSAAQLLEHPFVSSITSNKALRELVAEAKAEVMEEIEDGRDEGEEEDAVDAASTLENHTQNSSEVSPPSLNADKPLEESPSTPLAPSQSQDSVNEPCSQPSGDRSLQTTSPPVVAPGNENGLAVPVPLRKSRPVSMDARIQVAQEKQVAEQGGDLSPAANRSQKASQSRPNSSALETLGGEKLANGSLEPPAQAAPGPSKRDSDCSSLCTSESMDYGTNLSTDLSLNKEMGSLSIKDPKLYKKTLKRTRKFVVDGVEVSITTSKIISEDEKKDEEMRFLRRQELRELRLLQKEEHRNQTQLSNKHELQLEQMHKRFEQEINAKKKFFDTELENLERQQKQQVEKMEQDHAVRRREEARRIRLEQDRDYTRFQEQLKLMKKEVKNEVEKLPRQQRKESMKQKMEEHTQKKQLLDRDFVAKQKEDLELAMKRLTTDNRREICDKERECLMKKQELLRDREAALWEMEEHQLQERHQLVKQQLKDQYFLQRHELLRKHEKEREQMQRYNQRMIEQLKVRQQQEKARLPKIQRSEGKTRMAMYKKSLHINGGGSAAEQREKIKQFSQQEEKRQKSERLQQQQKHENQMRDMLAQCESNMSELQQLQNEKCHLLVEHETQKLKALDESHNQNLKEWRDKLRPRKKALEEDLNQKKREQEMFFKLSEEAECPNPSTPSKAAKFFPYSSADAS

Sequence of Cyclin-dependent kinase 18 (Homo sapiens) (Q07002 whole entry): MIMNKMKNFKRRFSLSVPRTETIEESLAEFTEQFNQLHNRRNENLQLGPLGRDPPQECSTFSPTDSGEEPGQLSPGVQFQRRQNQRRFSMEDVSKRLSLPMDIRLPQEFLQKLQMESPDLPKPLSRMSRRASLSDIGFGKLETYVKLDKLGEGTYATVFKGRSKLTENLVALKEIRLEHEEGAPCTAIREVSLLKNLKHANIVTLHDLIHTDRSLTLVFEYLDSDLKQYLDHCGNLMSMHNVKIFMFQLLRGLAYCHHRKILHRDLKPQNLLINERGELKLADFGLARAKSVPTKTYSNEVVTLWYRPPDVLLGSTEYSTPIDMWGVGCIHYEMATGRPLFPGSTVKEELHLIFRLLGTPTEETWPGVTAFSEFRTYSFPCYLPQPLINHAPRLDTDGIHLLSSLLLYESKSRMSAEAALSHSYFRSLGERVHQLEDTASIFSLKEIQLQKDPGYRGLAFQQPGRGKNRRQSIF
Sequence of Receptor-interacting serine/threonine-protein kinase 2 (O43353 whole entry): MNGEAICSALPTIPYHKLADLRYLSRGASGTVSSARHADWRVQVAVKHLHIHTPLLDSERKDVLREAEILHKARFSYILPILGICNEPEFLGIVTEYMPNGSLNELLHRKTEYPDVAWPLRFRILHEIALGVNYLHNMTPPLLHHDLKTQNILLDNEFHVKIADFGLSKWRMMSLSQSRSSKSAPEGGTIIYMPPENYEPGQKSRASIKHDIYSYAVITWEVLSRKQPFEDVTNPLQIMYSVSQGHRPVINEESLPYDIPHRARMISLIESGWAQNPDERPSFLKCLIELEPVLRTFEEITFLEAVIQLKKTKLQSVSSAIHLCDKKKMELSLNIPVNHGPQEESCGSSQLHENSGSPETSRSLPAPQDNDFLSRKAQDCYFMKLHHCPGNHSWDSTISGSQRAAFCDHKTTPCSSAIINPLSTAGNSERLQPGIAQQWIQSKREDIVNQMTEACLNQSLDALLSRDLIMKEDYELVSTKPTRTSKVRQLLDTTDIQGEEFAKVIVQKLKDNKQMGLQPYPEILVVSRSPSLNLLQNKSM
Sequence of Serine/threonine-protein kinase SBK1 (Homo sapiens) (Q52WX2 whole entry): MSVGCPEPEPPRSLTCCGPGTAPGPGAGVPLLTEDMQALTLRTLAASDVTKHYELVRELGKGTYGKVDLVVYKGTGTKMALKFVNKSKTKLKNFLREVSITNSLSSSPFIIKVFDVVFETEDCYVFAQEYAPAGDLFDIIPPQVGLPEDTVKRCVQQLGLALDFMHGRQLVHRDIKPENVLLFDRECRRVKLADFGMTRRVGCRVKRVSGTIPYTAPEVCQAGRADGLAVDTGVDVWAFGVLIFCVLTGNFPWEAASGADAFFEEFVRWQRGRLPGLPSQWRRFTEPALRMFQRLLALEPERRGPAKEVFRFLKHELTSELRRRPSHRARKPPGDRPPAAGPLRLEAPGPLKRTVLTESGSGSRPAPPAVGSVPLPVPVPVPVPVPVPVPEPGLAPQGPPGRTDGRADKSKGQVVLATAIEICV
Sequence of Mitogen-activated protein kinase 3 (P27361 whole entry): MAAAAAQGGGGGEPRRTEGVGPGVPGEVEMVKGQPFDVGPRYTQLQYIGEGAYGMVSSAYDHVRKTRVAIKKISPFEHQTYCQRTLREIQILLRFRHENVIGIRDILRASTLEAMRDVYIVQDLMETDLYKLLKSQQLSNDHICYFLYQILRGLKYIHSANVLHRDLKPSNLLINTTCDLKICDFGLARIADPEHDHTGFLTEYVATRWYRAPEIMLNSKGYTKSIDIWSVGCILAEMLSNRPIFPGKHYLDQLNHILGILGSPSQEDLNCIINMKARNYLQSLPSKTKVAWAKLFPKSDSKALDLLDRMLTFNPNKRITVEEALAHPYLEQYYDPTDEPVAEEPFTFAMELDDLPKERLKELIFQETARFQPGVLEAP
Sequence of Calcium/calmodulin-dependent protein kinase type II subunit beta (Homo sapiens) (Q13554 whole entry): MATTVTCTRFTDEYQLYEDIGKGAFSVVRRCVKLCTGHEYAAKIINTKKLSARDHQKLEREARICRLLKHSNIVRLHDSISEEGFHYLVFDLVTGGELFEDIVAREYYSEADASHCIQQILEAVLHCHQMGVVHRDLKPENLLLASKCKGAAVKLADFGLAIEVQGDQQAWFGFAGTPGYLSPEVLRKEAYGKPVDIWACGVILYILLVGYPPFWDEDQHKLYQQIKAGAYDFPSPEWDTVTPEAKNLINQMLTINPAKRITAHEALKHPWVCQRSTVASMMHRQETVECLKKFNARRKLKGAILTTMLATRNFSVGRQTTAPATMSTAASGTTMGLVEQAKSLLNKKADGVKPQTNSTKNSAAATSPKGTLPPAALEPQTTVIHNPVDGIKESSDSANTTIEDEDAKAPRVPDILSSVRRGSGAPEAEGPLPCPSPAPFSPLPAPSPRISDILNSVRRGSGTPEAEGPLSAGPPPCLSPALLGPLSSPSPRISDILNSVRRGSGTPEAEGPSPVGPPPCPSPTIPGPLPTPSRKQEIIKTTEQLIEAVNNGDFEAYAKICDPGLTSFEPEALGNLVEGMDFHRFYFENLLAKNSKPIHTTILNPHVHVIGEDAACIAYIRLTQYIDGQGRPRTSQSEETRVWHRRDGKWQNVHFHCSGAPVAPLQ

Cc1cc(F)c(C(=O)Nc2cccc(-c3nncn3C(C)C)n2)cc1-n1cnc(C2CC2)c1
% of control [1]: 97%

CNC(=O)Nc1ccc(-c2nc(N3CC4CCC(C3)O4)c3cnn(C4CCC5(CC4)OCCO5)c3n2)cc1
% of inhibition [2]: 8%
% of control [3]: 100%

O[C@H]1CC[C@H](Nc2ncc3nc(Nc4c(F)cc(F)cc4F)n([C@H]4CCOC4)c3n2)CC1
% of control [4]: 37%

CC[C@@H]1[C@H](F)C(=O)N[C@@H]1COc1nccc2cc(C(N)=O)c(OC)cc12 [ZIMLOVISERTIB]
% of inhibition [5]: 9.2%

CCN(CC)CCCCNc1ncc2cc(-c3cc(OC)cc(OC)c3)c(NC(=O)NC(C)(C)C)nc2n1
% of control [6]: 100%

CCC(=O)N1CCN(c2ccc(-n3c(=O)ccc4cnc5ccc(-c6cnc7ccccc7c6)cc5c43)cc2C(F)(F)F)CC1
% of control [7]: 97%

CN(C)C/C=C/C(=O)Nc1ccc(C(=O)N2CCCC(Nc3ncc(Cl)c(-c4c[nH]c5ccccc45)n3)C2)cc1 (stereo not drawn)
% of control [8]: 80%
